The values below come from ChEMBL document CHEMBL1132568, “Synthesis, pharmacological evaluation, and structure-activity relationship and quantitative structure-activity relationship studies on novel derivatives of 2,4-diamino-6,7-dimethoxyquinazoline alpha1-adrenoceptor antagonists” (J Med Chem, 1999).

pIC50, pKi: −log10 of the molar value. Some results are limits rather than exact numbers.

5-hydroxytryptamine receptor 2A, sequence (P14842 whole entry): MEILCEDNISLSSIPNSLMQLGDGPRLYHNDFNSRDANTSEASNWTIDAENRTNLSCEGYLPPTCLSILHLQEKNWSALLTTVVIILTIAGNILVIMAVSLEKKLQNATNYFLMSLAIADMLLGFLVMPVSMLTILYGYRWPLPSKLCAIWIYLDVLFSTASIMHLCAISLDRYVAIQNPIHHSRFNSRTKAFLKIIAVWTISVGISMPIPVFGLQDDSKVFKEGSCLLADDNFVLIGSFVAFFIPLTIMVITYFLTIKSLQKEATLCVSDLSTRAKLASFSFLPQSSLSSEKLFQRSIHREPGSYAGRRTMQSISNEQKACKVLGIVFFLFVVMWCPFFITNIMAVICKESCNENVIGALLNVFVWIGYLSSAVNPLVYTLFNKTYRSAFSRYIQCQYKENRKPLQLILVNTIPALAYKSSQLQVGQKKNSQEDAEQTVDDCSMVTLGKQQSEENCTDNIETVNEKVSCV
D(2) dopamine receptor, sequence (P61169 whole entry): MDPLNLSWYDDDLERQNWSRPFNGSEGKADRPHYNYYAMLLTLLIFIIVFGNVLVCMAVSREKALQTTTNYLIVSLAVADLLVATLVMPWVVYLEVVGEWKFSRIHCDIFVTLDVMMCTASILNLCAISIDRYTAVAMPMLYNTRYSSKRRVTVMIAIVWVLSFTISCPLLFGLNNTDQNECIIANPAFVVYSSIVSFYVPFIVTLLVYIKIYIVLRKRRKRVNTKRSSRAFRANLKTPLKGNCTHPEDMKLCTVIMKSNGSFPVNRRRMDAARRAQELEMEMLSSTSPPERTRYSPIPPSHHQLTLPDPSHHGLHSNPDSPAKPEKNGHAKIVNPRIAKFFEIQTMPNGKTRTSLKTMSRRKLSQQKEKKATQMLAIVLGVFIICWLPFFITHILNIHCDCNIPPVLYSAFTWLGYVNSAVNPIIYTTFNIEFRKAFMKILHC

The first experiment deals with T1, 5-hydroxytryptamine receptor 1A (Rattus norvegicus, UniProt P19327).
T1 sequence (P19327 whole entry): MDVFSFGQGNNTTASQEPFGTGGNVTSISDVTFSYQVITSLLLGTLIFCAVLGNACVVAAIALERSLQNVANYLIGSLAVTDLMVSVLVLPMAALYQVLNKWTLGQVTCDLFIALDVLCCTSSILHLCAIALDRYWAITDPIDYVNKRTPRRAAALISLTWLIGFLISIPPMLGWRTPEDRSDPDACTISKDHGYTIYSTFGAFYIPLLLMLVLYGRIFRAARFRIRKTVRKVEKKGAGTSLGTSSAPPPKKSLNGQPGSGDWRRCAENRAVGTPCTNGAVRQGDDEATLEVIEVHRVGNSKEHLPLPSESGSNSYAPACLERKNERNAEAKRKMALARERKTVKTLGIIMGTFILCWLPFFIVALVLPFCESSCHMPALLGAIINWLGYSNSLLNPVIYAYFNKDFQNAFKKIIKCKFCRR
The experiment is described as follows: Inhibition concentration against 5-hydroxytryptamine 1A receptor.
Usually pIC50 stands for the negative decadic logarithm of the IC50, by convention in mol/L. Read a low pIC50 as a large IC50. Turning to `COc1cc2nc(N3CCN(C(=O)COc4ccccc4OC)CC3)nc(N)c2cc1OC`, the negative-log IC50 (pIC50) is 6.77.

For the next experiment, the target named is Alpha-1D adrenergic receptor (Rattus norvegicus). Nature of the experiment: The binding affinity towards Alpha-1D adrenergic receptor in the COS cell line.
As usually defined, the pKi is the negative decadic logarithm of the Ki, by convention in mol/L. Lower therefore signals a high Ki. In the case of `COc1cc2nc(N3CCN(C(=O)C(C)Oc4c(OC)cccc4C(C)C)CC3)nc(N)c2cc1OC` (stereo not drawn), the pKi is 6.95.
Turning to `COc1cc2nc(N3CCN(C(=O)CC(=O)c4ccccc4)CC3)nc(N)c2cc1OC`, the negative-log Ki (pKi) was 8.09.

The next experiment addresses 5-hydroxytryptamine receptor 2A (Rattus norvegicus, UniProt P14842). Nature of the experiment: Inhibitory concentration against 5-hydroxytryptamine 2A receptor (Inactive at >1000 nM concentration).
As to `COc1cc2nc(N3CCNCC3)nc(N)c2cc1OC`, the pIC50 is less than 6.00.
On the same count and under the same terms, to `COc1cc2nc(N3CCN(C(=O)C(C)Oc4c(OC)cccc4C(C)C)CC3)nc(N)c2cc1OC` (stereo not drawn) belongs less than 6.00; to `COc1cc2nc(N3CCN(C(=O)COc4ccccc4OC)CC3)nc(N)c2cc1OC`, less than 6.00; to `COc1cc2nc(N3CCN(C(=O)CC(=O)c4ccccc4)CC3)nc(N)c2cc1OC`, less than 6.00.

Another experiment has as its target D(2) dopamine receptor (Rattus norvegicus, UniProt P61169). Nature of the experiment: Inhibitory concentration against Dopamine receptor D2 (Inactive at >1000 nM concentration).
The compound `COc1cc2nc(N3CCNCC3)nc(N)c2cc1OC` had a pIC50 of less than 6.00.
On to `COc1cc2nc(N3CCN(C(=O)C(C)Oc4c(OC)cccc4C(C)C)CC3)nc(N)c2cc1OC` (stereo not drawn), for which the negative logarithm of the IC50 (pIC50) was less than 6.00.
`COc1cc2nc(N3CCN(C(=O)COc4ccccc4OC)CC3)nc(N)c2cc1OC` had a pIC50 of less than 6.00.
`COc1cc2nc(N3CCN(C(=O)CC(=O)c4ccccc4)CC3)nc(N)c2cc1OC` gave a negative-log IC50 (pIC50) of less than 6.00.

The next experiment deals with T2, Alpha-1A adrenergic receptor (Rattus norvegicus, UniProt P43140).
T2 sequence (P43140 whole entry): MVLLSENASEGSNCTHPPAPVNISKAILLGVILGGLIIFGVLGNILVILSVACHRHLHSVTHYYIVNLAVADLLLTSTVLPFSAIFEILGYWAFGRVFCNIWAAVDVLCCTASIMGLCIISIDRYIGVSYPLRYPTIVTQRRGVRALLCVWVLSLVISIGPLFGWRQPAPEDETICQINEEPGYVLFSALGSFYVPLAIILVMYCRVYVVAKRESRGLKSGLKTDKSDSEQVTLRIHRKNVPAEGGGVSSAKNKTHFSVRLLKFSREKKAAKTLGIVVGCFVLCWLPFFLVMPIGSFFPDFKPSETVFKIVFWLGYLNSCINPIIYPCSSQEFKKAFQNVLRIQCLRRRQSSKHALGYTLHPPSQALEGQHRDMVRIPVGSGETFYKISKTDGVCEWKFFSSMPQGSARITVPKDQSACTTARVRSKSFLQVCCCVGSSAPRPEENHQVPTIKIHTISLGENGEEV
Nature of the experiment: The binding affinity towards Alpha-1A adrenergic receptor in the COS cell line. It counts as cell-based.
Compound `COc1cc2nc(N3CCN(C(=O)C(C)Oc4c(OC)cccc4C(C)C)CC3)nc(N)c2cc1OC` (stereo not drawn) had a pKi of 6.81.
`COc1cc2nc(N3CCN(C(=O)CC(=O)c4ccccc4)CC3)nc(N)c2cc1OC` showed a negative-log Ki (pKi) of 7.96.

The next experiment deals with T3, Adrenergic receptor alpha-2 (Rattus norvegicus, UniProt P22086+P19328+P22909).
T3 sequence (P22086 whole entry): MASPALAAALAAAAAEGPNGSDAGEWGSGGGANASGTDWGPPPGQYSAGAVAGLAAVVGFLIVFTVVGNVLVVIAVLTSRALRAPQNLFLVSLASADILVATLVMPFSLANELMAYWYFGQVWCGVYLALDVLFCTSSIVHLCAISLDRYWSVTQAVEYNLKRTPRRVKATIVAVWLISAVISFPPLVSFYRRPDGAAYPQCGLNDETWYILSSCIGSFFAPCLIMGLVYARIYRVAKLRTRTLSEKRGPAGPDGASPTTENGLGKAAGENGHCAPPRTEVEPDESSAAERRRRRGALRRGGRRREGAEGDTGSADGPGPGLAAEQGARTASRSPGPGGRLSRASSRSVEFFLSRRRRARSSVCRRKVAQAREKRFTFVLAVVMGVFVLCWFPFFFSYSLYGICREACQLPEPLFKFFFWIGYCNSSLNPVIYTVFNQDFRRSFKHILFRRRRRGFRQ
T3 sequence (P19328 whole entry): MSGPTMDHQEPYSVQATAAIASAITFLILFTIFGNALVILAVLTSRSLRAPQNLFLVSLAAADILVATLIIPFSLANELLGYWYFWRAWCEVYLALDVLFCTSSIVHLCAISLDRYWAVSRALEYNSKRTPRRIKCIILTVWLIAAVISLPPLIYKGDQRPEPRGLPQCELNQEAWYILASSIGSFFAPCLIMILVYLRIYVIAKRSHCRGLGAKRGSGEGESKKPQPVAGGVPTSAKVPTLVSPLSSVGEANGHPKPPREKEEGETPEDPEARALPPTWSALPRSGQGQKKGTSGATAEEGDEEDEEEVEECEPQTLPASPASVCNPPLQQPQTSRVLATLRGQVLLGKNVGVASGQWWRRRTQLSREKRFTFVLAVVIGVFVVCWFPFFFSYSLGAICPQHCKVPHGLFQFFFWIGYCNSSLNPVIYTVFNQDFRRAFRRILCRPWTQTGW
T3 sequence (P22909 whole entry): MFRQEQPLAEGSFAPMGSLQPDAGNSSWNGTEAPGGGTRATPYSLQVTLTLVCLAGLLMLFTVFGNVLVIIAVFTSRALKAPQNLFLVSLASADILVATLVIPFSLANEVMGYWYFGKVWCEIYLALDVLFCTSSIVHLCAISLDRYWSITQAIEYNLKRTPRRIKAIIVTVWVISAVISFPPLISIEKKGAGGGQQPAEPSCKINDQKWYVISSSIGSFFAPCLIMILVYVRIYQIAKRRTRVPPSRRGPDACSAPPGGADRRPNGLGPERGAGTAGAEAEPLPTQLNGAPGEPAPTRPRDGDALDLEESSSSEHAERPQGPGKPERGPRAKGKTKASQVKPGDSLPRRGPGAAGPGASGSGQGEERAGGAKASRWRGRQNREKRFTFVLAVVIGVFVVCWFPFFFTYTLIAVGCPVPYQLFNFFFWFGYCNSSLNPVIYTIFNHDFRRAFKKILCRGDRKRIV
Nature of the experiment: Inhibitory concentration against Alpha-2 adrenergic receptor. The experiment is classed as protein assay.
Usually IC50 stands for the midpoint of a concentration-inhibition curve. A high value points to weaker potency. Compound `COc1cc2nc(N3CCNCC3)nc(N)c2cc1OC` yielded an IC50 of more than 1000 nM.
In turn, `COc1cc2nc(N3CCN(C(=O)C(C)Oc4c(OC)cccc4C(C)C)CC3)nc(N)c2cc1OC` (stereo not drawn) came in with a concentration for half-maximal inhibition (IC50) of more than 1000 nM.
Compound `COc1cc2nc(N3CCN(C(=O)COc4ccccc4OC)CC3)nc(N)c2cc1OC` showed a 50% inhibitory concentration (IC50) of more than 1000 nM.
In the case of `COc1cc2nc(N3CCN(C(=O)CC(=O)c4ccccc4)CC3)nc(N)c2cc1OC`, the IC50 is reported as more than 1000 nM.

In a further experiment the target is T1, 5-hydroxytryptamine receptor 1A. Nature of the experiment: Inhibitory concentration against 5-hydroxytryptamine 1A receptor (Inactive at >1000 nM concentration).
The compound `COc1cc2nc(N3CCNCC3)nc(N)c2cc1OC` gave a pIC50 of less than 6.00.
For the compound `COc1cc2nc(N3CCN(C(=O)C(C)Oc4c(OC)cccc4C(C)C)CC3)nc(N)c2cc1OC` (stereo not drawn), the pIC50 was less than 6.00.
Turning to `COc1cc2nc(N3CCN(C(=O)CC(=O)c4ccccc4)CC3)nc(N)c2cc1OC`, the pIC50 is less than 6.00.

The subject of a further experiment is Canis familiaris. The experiment is described as follows: In vivo effect on urethral contractility (UP) of dog after intravenous administration. The experiment is classed as functional, Canis lupus familiaris, Urethra.
One may read the ED50 as the dose that gives a 50% effect, or the effect in half of the subjects. As for `COc1cc2nc(N3CCN(C(=O)CC(=O)c4ccccc4)CC3)nc(N)c2cc1OC`, the 50% effect level (ED50) was put at a dose of 10.6 µg/kg.

In the next experiment the target is Alpha-1B adrenergic receptor (non-human animal clone). Nature of the experiment: The binding affinity towards Alpha-1B adrenergic receptor in the COS cell line.
Take `COc1cc2nc(N3CCN(C(=O)C(C)Oc4c(OC)cccc4C(C)C)CC3)nc(N)c2cc1OC` (stereo not drawn): the negative logarithm of the Ki (pKi) is 7.83.
Turning to `COc1cc2nc(N3CCN(C(=O)CC(=O)c4ccccc4)CC3)nc(N)c2cc1OC`, the pKi was 8.27.

Another experiment concerns Canis familiaris. Nature of the experiment: Ratio of the in vivo effects(DBP/UP) in the dog model after intravenous administration. The experiment is classed as functional, Canis lupus familiaris.
Take `COc1cc2nc(N3CCN(C(=O)CC(=O)c4ccccc4)CC3)nc(N)c2cc1OC`: the DBP/UP ratio is listed as 0.7.

Another experiment concerns the target T4, Adrenergic receptor alpha-1 (Rattus norvegicus, UniProt P15823+P23944+P43140).
T4 sequence (P15823 whole entry): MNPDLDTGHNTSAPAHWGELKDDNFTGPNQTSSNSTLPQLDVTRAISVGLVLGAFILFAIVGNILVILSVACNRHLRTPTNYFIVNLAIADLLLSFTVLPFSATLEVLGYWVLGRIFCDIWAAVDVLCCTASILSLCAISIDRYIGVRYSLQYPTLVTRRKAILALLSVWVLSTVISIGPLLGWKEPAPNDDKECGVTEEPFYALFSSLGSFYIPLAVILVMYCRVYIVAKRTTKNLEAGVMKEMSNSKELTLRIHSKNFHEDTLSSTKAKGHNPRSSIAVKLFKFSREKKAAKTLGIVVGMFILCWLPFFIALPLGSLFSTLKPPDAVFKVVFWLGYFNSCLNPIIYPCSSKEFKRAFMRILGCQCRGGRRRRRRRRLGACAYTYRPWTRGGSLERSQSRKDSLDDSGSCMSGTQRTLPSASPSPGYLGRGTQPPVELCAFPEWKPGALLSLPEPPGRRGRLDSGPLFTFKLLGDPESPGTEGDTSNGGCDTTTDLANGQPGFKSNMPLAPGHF
T4 sequence (P23944 whole entry): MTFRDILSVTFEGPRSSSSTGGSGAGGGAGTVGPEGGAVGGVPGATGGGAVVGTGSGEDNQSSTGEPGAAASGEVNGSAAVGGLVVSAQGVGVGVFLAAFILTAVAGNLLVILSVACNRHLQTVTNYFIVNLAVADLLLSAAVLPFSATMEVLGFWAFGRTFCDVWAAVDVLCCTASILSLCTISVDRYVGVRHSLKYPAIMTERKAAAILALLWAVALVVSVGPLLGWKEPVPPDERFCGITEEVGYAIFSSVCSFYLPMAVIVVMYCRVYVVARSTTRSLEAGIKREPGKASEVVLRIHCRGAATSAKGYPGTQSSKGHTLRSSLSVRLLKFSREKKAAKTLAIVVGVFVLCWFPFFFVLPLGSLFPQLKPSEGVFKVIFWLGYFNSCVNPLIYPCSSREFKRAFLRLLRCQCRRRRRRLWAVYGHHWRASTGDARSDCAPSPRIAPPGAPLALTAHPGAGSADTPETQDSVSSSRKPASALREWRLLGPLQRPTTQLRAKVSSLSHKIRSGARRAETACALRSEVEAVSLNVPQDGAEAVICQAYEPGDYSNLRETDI
T4 sequence (P43140 whole entry): T2 sequence (P43140 whole entry)
The experiment is described as follows: Inhibition of Alpha-1 adrenergic receptor in rat cortex membrane. The experiment is classed as cell membranes.
`COc1cc2nc(N3CCNCC3)nc(N)c2cc1OC`: the IC50 came out at 340 nM.
`COc1cc2nc(N3CCN(C(=O)C(C)Oc4c(OC)cccc4C(C)C)CC3)nc(N)c2cc1OC` (stereo not drawn) gave an IC50 of 123 nM.
The same measure, in the same setting: the result for `COc1cc2nc(N3CCN(C(=O)CC(=O)c4ccccc4)CC3)nc(N)c2cc1OC` reads 7.2 nM.

A further experiment relates to Canis familiaris. Nature of the experiment: In vivo hypotensive effect(DBP) in dog after intravenous administration. The experiment is classed as functional, Canis lupus familiaris.
As to `COc1cc2nc(N3CCN(C(=O)CC(=O)c4ccccc4)CC3)nc(N)c2cc1OC`, the ED25 came out at 8.1 µg/kg.
